Reference: ChEMBL document CHEMBL3868619, “Synthesis and biological assessment of novel N-(hydroxy/methoxy)alkyl β-enaminone curcuminoids” (Bioorg Med Chem Lett, 2016)
Values after ≈ are worked out from the molar mass of the structure shown.

Assays:
[1] = Antioxidant activity assessed as DPPH radical scavenging activity after 30 mins by spectrophotometric analysis; format: functional
[2] = Aqueous solubility of the compound in sodium phosphate buffer at pH 6.8 after 90 mins by shake flask method; format: physicochemical
[3] = Aqueous solubility of the compound in sodium phosphate buffer at pH 6.8 after 24 hrs by shake flask method; format: physicochemical
[4] = Cytotoxicity against human Caco2 cells assessed as decrease in cell viability after 48 hrs by MTT assay; format: functional, cell-based; details: Caco-2, 48 h
[5] = Cytotoxicity against human HepG2 cells assessed as decrease in cell viability after 48 hrs by MTT assay; format: functional, cell-based; details: HepG2, 48 h
[6] = Cytotoxicity against human HT-29 cells assessed as decrease in cell viability after 48 hrs by MTT assay; format: functional, cell-based; details: HT-29, 48 h
[7] = Cytotoxicity against CHOK1 cells assessed as decrease in cell viability after 48 hrs by MTT assay; format: toxicity, cell-based, Cricetulus griseus; details: Chinese hamster, CHO-K1 cells
[8] = Cytotoxicity against human EAhy926 cells assessed as decrease in cell viability after 48 hrs by MTT assay; format: toxicity, cell-based, EA.hy 926; details: EA.hy926 cells
Caco-2 [9] = assay: Induction of ROS generation in human Caco2 cells at 1 uM using DCFH-DA by fluorescence assay relative to control; format: functional
Caco-2 [10] = assay: Induction of ROS generation in human Caco2 cells at 10 uM using DCFH-DA by fluorescence assay relative to control; format: functional
HepG2 [11] = assay: Induction of ROS generation in human HepG2 cells at 1 uM using DCFH-DA by fluorescence assay relative to control; format: functional
HepG2 [12] = assay: Induction of ROS generation in human HepG2 cells at 10 uM using DCFH-DA by fluorescence assay relative to control; format: functional
HT-29 [13] = assay: Induction of ROS generation in human HT-29 cells at 1 uM using DCFH-DA by fluorescence assay relative to control; format: functional
HT-29 [14] = assay: Induction of ROS generation in human HT-29 cells at 10 uM using DCFH-DA by fluorescence assay relative to control; format: functional
[15] = Induction of ROS generation in CHOK1 cells at 1 uM using DCFH-DA by fluorescence assay relative to control; format: cell-based, Cricetulus griseus; details: chinese hamster, cho-k1, 1 µM
[16] = Induction of ROS generation in CHOK1 cells at 10 uM using DCFH-DA by fluorescence assay relative to control; format: cell-based, Cricetulus griseus; details: chinese hamster, cho-k1, 10 µM
EA.hy 926 [17] = assay: Induction of ROS generation in human EAhy926 cells at 1 uM using DCFH-DA by fluorescence assay relative to control; format: functional
EA.hy 926 [18] = assay: Induction of ROS generation in human EAhy926 cells at 10 uM using DCFH-DA by fluorescence assay relative to control; format: functional
[19] = Chemical stability of the compound sodium phosphate buffer at pH 6.8 after 24 hrs by LC-MS analysis; format: physicochemical; details: pH 6.8, 24 h
[20] = Solubility of the compound in ethanol; format: physicochemical
[21] = Solubility of the compound in methanol; format: physicochemical
[22] = Solubility of the compound in dimethylformamide; format: physicochemical
[23] = Solubility of the compound in dimethyl sulfoxide; format: physicochemical
[24] = Solubility of the compound in acetone; format: physicochemical
[25] = Solubility of the compound in 2-methyl-THF; format: physicochemical
[26] = Solubility of the compound in ethyl acetate; format: physicochemical

Row | EC50 [1] | solubility thermodynamic at 1.5 h [2] | solubility thermodynamic at 24 h [3] | Activity [15] | Activity [16] | Stability [19] | solubility [20] | SMILES | IC50 [4] | IC50 [5] | IC50 [6] | IC50 at 48 h [7] | IC50 at 48 h [8] | Activity (Caco-2 [9]) | Activity (Caco-2 [10]) | Activity (HepG2 [11]) | Activity (HepG2 [12]) | Activity (HT-29 [13]) | Activity (HT-29 [14]) | Activity (EA.hy 926 [17]) | Activity (EA.hy 926 [18]) | other results
1 | 29.6 µM |  |  |  |  |  |  | Cc1c(C)c2c(c(C)c1O)CCC(C)(C(=O)O)O2 (configuration not stated) [TROLOX] |  |  |  |  |  |  |  |  |  |  |  |  |  | 
2 | > 200 µM | 25.8 µM (≈ 9.8 µg/mL) | 38.8 µM (≈ 14.7 µg/mL) | 97.8% | 91.7% | Stable |  | COCCCN1C(/C=C/c2ccc(O)cc2)=CC(=O)CC1c1ccc(O)cc1 (configuration not stated) | > 100 µM | > 100 µM | > 100 µM | > 100 µM | > 100 µM | 99% | 99.4% | 93.2% | 96.2% | 90.5% | 74.7% | 116.4% | 118.6% | 
3 | 130 µM | 10.4 µM (≈ 3.97 µg/mL) | 14.8 µM (≈ 5.63 µg/mL) | 99.8% | 97% | Stable | Soluble | COCCCNC(=C\C(=O)/C=C/c1ccc(O)cc1)/C=C/c1ccc(O)cc1 | 24 µM | 61.9 µM | 51.9 µM | 44.9 µM | 81.9 µM | 97% | 89% | 79.5% | 71.6% | 98% | 95.7% | 107.6% | 98.7% | solubility [21]: Soluble; solubility [22]: Soluble; solubility [23]: Soluble; solubility [24]: Insoluble; solubility [25]: Insoluble; solubility [26]: Insoluble
4 | > 200 µM | 37.5 µM (≈ 13.7 µg/mL) | 46.1 µM (≈ 16.8 µg/mL) | 82.5% | 75.1% | Stable | Soluble | COCCNC(=C\C(=O)/C=C/c1ccc(O)cc1)/C=C/c1ccc(O)cc1 | 28 µM | 63.3 µM | 57.4 µM | 34.9 µM | 45.1 µM | 94.9% | 89.7% | 76.4% | 77.9% | 97% | 96.8% | 130.3% | 134.2% | solubility [21]: Soluble; solubility [22]: Soluble; solubility [23]: Soluble; solubility [24]: Insoluble; solubility [25]: Insoluble; solubility [26]: Insoluble
5 | > 200 µM | 38.7 µM (≈ 13.6 µg/mL) | 37.9 µM (≈ 13.3 µg/mL) | 93.4% | 85.7% | Stable | Soluble | O=C(/C=C(/C=C/c1ccc(O)cc1)NCCO)/C=C/c1ccc(O)cc1 | 57.9 µM | 48.4 µM | 66.2 µM | 66 µM | 50.2 µM | 98.1% | 87.1% | 82.7% | 83.6% | 94.9% | 90.6% | 108% | 99.3% | solubility [21]: Soluble; solubility [22]: Soluble; solubility [23]: Soluble; solubility [24]: Insoluble; solubility [25]: Insoluble; solubility [26]: Insoluble
6 | 29.5 µM | 7.7 µM (≈ 3.38 µg/mL) | 9.66 µM (≈ 4.25 µg/mL) | 98.3% | 81.2% | Stable | Soluble | COCCCNC(=C\C(=O)/C=C/c1ccc(O)c(OC)c1)/C=C/c1ccc(O)c(OC)c1 | 49.1 µM | > 100 µM | 72.2 µM | 53.7 µM | > 100 µM | 97.9% | 84.8% | 68.5% | 77.5% | 99.5% | 95% | 91.5% | 89.9% | solubility [21]: Soluble; solubility [22]: Soluble; solubility [23]: Soluble; solubility [24]: Insoluble; solubility [25]: Insoluble; solubility [26]: Insoluble
7 | 31.5 µM | 1.51 µM (≈ 0.556 µg/mL) | 1.25 µM (≈ 0.46 µg/mL) | 103.9% | 101% | Stable |  | COc1cc(/C=C/C(=O)CC(=O)/C=C/c2ccc(O)c(OC)c2)ccc1O [CURCUMIN] | 38.3 µM | 72.7 µM | 51.7 µM | 42 µM | 24.6 µM | 89.1% | 94.8% | 93.7% | 99.1% | 97.3% | 87.3% | 105.5% | 98.8% | 
8 | 28.3 µM | 8.14 µM (≈ 3.35 µg/mL) | 11.8 µM (≈ 4.85 µg/mL) | 93.5% | 90.9% | Stable | Soluble | COc1cc(/C=C/C(=O)/C=C(/C=C/c2ccc(O)c(OC)c2)NCCO)ccc1O | 87.2 µM | > 100 µM | > 100 µM | 87.5 µM | > 100 µM | 103.4% | 96.6% | 86.3% | 91.2% | 95.8% | 102.7% | 113.3% | 102.4% | solubility [21]: Soluble; solubility [22]: Soluble; solubility [23]: Soluble; solubility [24]: Insoluble; solubility [25]: Insoluble; solubility [26]: Insoluble
9 | 154 µM | 137 µM (≈ 49.9 µg/mL) | 128 µM (≈ 46.9 µg/mL) | 86.4% | 80.5% | Stable | Soluble | O=C(/C=C(/C=C/c1ccc(O)cc1)NCCCO)/C=C/c1ccc(O)cc1 | 31.6 µM | 54.1 µM | 58.9 µM | 39.1 µM | 57.3 µM | 94.1% | 91.7% | 91.3% | 88.7% | 92.5% | 96.9% | 93.3% | 109.9% | solubility [21]: Soluble; solubility [22]: Soluble; solubility [23]: Soluble; solubility [24]: Insoluble; solubility [25]: Insoluble; solubility [26]: Insoluble
10 | > 200 µM | 3.18 µM (≈ 0.98 µg/mL) | 4.3 µM (≈ 1.33 µg/mL) | 104.6% | 107.9% | Stable |  | O=C(/C=C/c1ccc(O)cc1)CC(=O)/C=C/c1ccc(O)cc1 [BISDEMETHOXYCURCUMIN] | > 100 µM | > 100 µM | > 100 µM | 91.4 µM | 54.3 µM | 100.1% | 88.8% | 88.8% | 69.4% | 101.1% | 95.4% | 95.8% | 104.6% | 
11 | 49.4 µM | 29.2 µM (≈ 10.3 µg/mL) | 29.9 µM (≈ 10.5 µg/mL) | 99.4% | 87.6% | Stable |  | O=C1C=C(/C=C/c2ccc(O)cc2)N(CCO)C(c2ccc(O)cc2)C1 (configuration not stated) | > 100 µM | > 100 µM | > 100 µM | > 100 µM | > 100 µM | 95.3% | 91.5% | 105.4% | 100.1% | 100.8% | 98.8% | 106.9% | 101.4% | 
12 | 33.9 µM | 58.9 µM (≈ 25.1 µg/mL) | 62.9 µM (≈ 26.8 µg/mL) | 91.8% | 80.3% | Stable |  | COc1cc(/C=C/C2=CC(=O)CC(c3ccc(O)c(OC)c3)N2CCCO)ccc1O (configuration not stated) | 88 µM | > 100 µM | > 100 µM | > 100 µM | > 100 µM | 95.6% | 91% | 95.2% | 96.3% | 98.1% | 96.5% | 122% | 123.5% | 
